The target of the assay is T1, PptAb-ACP complex (S2105A ACP) (Mycobacteroides abscessus, UniProt B1MD73).
T1 construct: gene MAB_3117c

For the compound `CCNC(=N)NC(=O)Nc1c(CC)cccc1CC` [compound 1, 1-[(2,6-diethylphenyl)-3-N-ethylcarbamimodoyl]urea], the “X-ray crystallography, 2.5 Å, co-crystallisation” value was “complex formed between PptAb and its cognate ACP domain in the presence of CoA”.

The record behind these values is publication PMC8433221 (Scientific Reports, 2021).
